# Paper PMC12621043, “Un-LOK-ing a New Approach for Conformational Selective Targeting of STK10 (LOK)” (ACS Medicinal Chemistry Letters, 2025)
# Target: T1, K2A2 (CSNK2A2A) (Homo sapiens, UniProt P19784)
# T1 construct: purchased in-house DSF kinase panel (SGC-style construct names; the trailing letter is the construct ID)
# Assay: DSF Tm panel
# Assay type: binding
# Conditions: 10 μM compound
# T1 sequence (P19784 whole entry): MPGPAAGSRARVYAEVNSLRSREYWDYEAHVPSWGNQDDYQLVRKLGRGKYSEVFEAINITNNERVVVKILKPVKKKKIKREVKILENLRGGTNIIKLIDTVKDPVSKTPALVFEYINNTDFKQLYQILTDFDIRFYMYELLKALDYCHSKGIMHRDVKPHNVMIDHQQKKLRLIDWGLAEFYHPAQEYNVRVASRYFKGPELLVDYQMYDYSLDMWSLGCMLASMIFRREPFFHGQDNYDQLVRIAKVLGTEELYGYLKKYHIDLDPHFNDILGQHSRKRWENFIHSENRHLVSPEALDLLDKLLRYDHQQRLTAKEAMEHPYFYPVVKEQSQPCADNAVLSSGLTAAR
row,Compound,ΔTm at 10 µM [°C]
1,COc1cccc(CNC(=O)Nc2ccc3cc2OCCOCCNc2ccn4ncc-3c4n2)c1 [compound 30],0.8
2,COc1ccc(CNC(=O)Nc2ccc3cc2OCCOCCNc2ccn4ncc-3c4n2)cc1 [compound 31],2.5
3,COc1ccc(CNC(=O)Nc2ccc3cc2OCCOCCNc2ccn4ncc-3c4n2)cc1F [compound 32],2.2
4,COc1cc(CNC(=O)Nc2ccc3cc2OCCOCCNc2ccn4ncc-3c4n2)ccc1F [compound 33],1.7
5,C[C@H](NC(=O)Nc1ccc2cc1OCCOCCNc1ccn3ncc-2c3n1)c1ccccc1 [compound 34],1.2

# Test system: TAF1A
# Assay: DSF Tm panel
# Assay type: binding
# Conditions: 10 μM compound
row,Compound,ΔTm TAF1A
1,COc1cccc(CNC(=O)Nc2ccc3cc2OCCOCCNc2ccn4ncc-3c4n2)c1 [compound 30],"-0,1 °C"
2,COc1ccc(CNC(=O)Nc2ccc3cc2OCCOCCNc2ccn4ncc-3c4n2)cc1 [compound 31],"0,0 °C"
3,COc1ccc(CNC(=O)Nc2ccc3cc2OCCOCCNc2ccn4ncc-3c4n2)cc1F [compound 32],"0,2 °C"
4,COc1cc(CNC(=O)Nc2ccc3cc2OCCOCCNc2ccn4ncc-3c4n2)ccc1F [compound 33],"0,1 °C"
5,C[C@H](NC(=O)Nc1ccc2cc1OCCOCCNc1ccn3ncc-2c3n1)c1ccccc1 [compound 34],"-0,3 °C"

# Target: T2, SRCA (Homo sapiens, UniProt P12931)
# T2 construct: purchased in-house DSF kinase panel (SGC-style construct names; the trailing letter is the construct ID)
# Assay: DSF Tm panel
# Assay type: binding
# Conditions: 10 μM compound
# T2 sequence (P12931 254-536): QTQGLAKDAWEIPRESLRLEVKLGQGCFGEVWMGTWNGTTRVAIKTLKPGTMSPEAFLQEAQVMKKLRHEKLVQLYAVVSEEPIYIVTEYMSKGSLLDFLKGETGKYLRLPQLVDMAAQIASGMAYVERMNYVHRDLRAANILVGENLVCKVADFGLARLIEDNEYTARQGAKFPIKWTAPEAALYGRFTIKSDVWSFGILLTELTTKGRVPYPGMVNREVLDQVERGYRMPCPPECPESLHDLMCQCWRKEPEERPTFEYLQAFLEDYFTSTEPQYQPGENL
row,Compound,ΔTm at 10 µM [°C]
1,COc1cccc(CNC(=O)Nc2ccc3cc2OCCOCCNc2ccn4ncc-3c4n2)c1 [compound 30],2.7
2,COc1ccc(CNC(=O)Nc2ccc3cc2OCCOCCNc2ccn4ncc-3c4n2)cc1 [compound 31],3.2
3,COc1ccc(CNC(=O)Nc2ccc3cc2OCCOCCNc2ccn4ncc-3c4n2)cc1F [compound 32],2.6
4,COc1cc(CNC(=O)Nc2ccc3cc2OCCOCCNc2ccn4ncc-3c4n2)ccc1F [compound 33],2.6
5,C[C@H](NC(=O)Nc1ccc2cc1OCCOCCNc1ccn3ncc-2c3n1)c1ccccc1 [compound 34],1.4

# Target: T3, TTKA (Homo sapiens, UniProt P33981)
# T3 construct: purchased in-house DSF kinase panel (SGC-style construct names; the trailing letter is the construct ID)
# T3 sequence (P33981 519-808): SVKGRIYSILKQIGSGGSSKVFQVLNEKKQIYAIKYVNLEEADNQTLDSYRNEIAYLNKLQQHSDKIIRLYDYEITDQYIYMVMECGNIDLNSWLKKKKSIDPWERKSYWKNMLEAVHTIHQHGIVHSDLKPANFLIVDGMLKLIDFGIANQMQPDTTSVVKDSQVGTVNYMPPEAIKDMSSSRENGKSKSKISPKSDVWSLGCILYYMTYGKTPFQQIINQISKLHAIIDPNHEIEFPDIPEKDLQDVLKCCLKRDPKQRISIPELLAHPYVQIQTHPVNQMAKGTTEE
# Assay: DSF Tm panel
# Assay type: binding
# Conditions: 10 μM compound
row,Compound,ΔTm at 10 µM [°C]
1,COc1cccc(CNC(=O)Nc2ccc3cc2OCCOCCNc2ccn4ncc-3c4n2)c1 [compound 30],1.6
2,COc1ccc(CNC(=O)Nc2ccc3cc2OCCOCCNc2ccn4ncc-3c4n2)cc1 [compound 31],1.8
3,COc1ccc(CNC(=O)Nc2ccc3cc2OCCOCCNc2ccn4ncc-3c4n2)cc1F [compound 32],2.4
4,COc1cc(CNC(=O)Nc2ccc3cc2OCCOCCNc2ccn4ncc-3c4n2)ccc1F [compound 33],2
5,C[C@H](NC(=O)Nc1ccc2cc1OCCOCCNc1ccn3ncc-2c3n1)c1ccccc1 [compound 34],1.8

# Target: T4, GAKA (Homo sapiens, UniProt O14976)
# T4 construct: purchased in-house DSF kinase panel (SGC-style construct names; the trailing letter is the construct ID)
# T4 sequence (O14976 14-351): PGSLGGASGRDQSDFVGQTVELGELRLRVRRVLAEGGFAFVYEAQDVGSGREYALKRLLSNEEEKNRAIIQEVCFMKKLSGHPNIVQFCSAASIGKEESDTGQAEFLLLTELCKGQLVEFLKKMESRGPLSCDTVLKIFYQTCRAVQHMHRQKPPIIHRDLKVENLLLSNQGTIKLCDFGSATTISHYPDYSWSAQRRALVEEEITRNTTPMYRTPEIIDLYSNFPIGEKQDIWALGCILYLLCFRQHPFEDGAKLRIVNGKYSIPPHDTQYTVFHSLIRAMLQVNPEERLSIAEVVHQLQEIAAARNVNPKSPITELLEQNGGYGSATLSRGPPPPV
# Assay: DSF Tm panel
# Assay type: binding
# Conditions: 10 μM compound
row,Compound,ΔTm at 10 µM [°C]
1,COc1cccc(CNC(=O)Nc2ccc3cc2OCCOCCNc2ccn4ncc-3c4n2)c1 [compound 30],4.7
2,COc1ccc(CNC(=O)Nc2ccc3cc2OCCOCCNc2ccn4ncc-3c4n2)cc1 [compound 31],6.2
3,COc1ccc(CNC(=O)Nc2ccc3cc2OCCOCCNc2ccn4ncc-3c4n2)cc1F [compound 32],6
4,COc1cc(CNC(=O)Nc2ccc3cc2OCCOCCNc2ccn4ncc-3c4n2)ccc1F [compound 33],6.2
5,C[C@H](NC(=O)Nc1ccc2cc1OCCOCCNc1ccn3ncc-2c3n1)c1ccccc1 [compound 34],5.7

# Target: T5, STK6A (Homo sapiens, UniProt O14965)
# T5 construct: purchased in-house DSF kinase panel (SGC-style construct names; the trailing letter is the construct ID)
# T5 sequence (O14965 122-403): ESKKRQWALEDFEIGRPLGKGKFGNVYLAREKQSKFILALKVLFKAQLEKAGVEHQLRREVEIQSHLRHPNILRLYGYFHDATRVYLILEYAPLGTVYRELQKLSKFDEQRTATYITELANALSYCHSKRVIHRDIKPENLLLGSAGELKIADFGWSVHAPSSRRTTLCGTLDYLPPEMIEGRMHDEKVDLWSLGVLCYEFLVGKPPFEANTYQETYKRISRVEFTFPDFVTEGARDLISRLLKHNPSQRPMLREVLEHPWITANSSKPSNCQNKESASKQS
# Assay: DSF Tm panel
# Assay type: binding
# Conditions: 10 μM compound
row,Compound,ΔTm at 10 µM [°C]
1,COc1cccc(CNC(=O)Nc2ccc3cc2OCCOCCNc2ccn4ncc-3c4n2)c1 [compound 30],7.4
2,COc1ccc(CNC(=O)Nc2ccc3cc2OCCOCCNc2ccn4ncc-3c4n2)cc1 [compound 31],8
3,COc1ccc(CNC(=O)Nc2ccc3cc2OCCOCCNc2ccn4ncc-3c4n2)cc1F [compound 32],7.6
4,COc1cc(CNC(=O)Nc2ccc3cc2OCCOCCNc2ccn4ncc-3c4n2)ccc1F [compound 33],9.9
5,C[C@H](NC(=O)Nc1ccc2cc1OCCOCCNc1ccn3ncc-2c3n1)c1ccccc1 [compound 34],7.7

# Target: T6, GSK3BB (Homo sapiens, UniProt P49841)
# T6 construct: purchased in-house DSF kinase panel (SGC-style construct names; the trailing letter is the construct ID)
# Assay: DSF Tm panel
# Assay type: binding
# Conditions: 10 μM compound
# T6 sequence (P49841 35-386): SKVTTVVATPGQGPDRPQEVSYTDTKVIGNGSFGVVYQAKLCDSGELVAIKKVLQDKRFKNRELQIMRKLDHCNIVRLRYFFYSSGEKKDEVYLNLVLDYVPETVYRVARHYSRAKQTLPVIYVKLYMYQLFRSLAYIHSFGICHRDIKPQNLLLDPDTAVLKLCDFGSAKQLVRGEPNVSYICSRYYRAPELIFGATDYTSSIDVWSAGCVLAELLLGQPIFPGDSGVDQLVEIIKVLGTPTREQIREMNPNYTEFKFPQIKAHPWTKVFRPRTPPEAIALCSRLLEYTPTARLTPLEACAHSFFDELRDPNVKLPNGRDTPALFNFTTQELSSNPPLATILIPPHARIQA
row,Compound,ΔTm at 10 µM [°C]
1,COc1cccc(CNC(=O)Nc2ccc3cc2OCCOCCNc2ccn4ncc-3c4n2)c1 [compound 30],1.3
2,COc1ccc(CNC(=O)Nc2ccc3cc2OCCOCCNc2ccn4ncc-3c4n2)cc1 [compound 31],1
3,COc1ccc(CNC(=O)Nc2ccc3cc2OCCOCCNc2ccn4ncc-3c4n2)cc1F [compound 32],0.6
4,COc1cc(CNC(=O)Nc2ccc3cc2OCCOCCNc2ccn4ncc-3c4n2)ccc1F [compound 33],1.6
5,C[C@H](NC(=O)Nc1ccc2cc1OCCOCCNc1ccn3ncc-2c3n1)c1ccccc1 [compound 34],1.1

# Target: T7, BMPR2A (Homo sapiens, UniProt Q13873)
# T7 construct: purchased in-house DSF kinase panel (SGC-style construct names; the trailing letter is the construct ID)
# T7 sequence (Q13873 27-1038): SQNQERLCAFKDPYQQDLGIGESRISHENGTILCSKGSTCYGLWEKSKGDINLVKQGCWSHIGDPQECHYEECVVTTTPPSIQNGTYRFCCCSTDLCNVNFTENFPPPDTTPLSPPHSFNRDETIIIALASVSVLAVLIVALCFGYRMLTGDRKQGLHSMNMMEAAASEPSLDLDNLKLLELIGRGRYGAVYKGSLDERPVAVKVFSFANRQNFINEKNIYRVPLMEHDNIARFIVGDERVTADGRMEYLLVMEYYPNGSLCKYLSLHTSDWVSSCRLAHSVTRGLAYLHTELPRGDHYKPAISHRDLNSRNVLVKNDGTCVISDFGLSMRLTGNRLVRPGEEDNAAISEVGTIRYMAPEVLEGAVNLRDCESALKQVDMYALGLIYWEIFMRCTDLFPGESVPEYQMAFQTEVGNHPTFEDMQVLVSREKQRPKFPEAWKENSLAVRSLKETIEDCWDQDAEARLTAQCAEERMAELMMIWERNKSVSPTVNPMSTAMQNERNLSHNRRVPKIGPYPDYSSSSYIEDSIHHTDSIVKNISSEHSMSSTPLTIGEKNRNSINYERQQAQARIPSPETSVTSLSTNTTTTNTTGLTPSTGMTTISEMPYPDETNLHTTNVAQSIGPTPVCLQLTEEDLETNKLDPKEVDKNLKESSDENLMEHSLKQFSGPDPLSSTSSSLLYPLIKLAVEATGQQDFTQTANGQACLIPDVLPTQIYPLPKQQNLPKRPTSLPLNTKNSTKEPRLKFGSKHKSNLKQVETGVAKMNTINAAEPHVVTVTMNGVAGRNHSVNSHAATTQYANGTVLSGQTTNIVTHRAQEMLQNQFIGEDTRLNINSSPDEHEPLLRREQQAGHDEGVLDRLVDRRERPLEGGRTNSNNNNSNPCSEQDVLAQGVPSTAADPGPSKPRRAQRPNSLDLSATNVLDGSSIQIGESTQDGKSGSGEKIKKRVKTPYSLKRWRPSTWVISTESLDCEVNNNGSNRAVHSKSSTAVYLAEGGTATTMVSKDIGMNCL
# Assay: DSF Tm panel
# Assay type: binding
# Conditions: 10 μM compound
row,Compound,ΔTm at 10 µM [°C]
1,COc1cccc(CNC(=O)Nc2ccc3cc2OCCOCCNc2ccn4ncc-3c4n2)c1 [compound 30],4.3
2,COc1ccc(CNC(=O)Nc2ccc3cc2OCCOCCNc2ccn4ncc-3c4n2)cc1 [compound 31],4.6
3,COc1ccc(CNC(=O)Nc2ccc3cc2OCCOCCNc2ccn4ncc-3c4n2)cc1F [compound 32],4.4
4,COc1cc(CNC(=O)Nc2ccc3cc2OCCOCCNc2ccn4ncc-3c4n2)ccc1F [compound 33],3.7
5,C[C@H](NC(=O)Nc1ccc2cc1OCCOCCNc1ccn3ncc-2c3n1)c1ccccc1 [compound 34],5.1

# Target: T8, BRD4 (BRD4A) (Homo sapiens, UniProt O60885)
# T8 construct: purchased in-house DSF kinase panel (SGC-style construct names; the trailing letter is the construct ID)
# Assay: DSF Tm panel
# Assay type: binding
# Conditions: 10 μM compound
row,Compound,ΔTm at 10 µM [°C]
1,COc1cccc(CNC(=O)Nc2ccc3cc2OCCOCCNc2ccn4ncc-3c4n2)c1 [compound 30],0.1
2,COc1ccc(CNC(=O)Nc2ccc3cc2OCCOCCNc2ccn4ncc-3c4n2)cc1 [compound 31],0.6
3,COc1ccc(CNC(=O)Nc2ccc3cc2OCCOCCNc2ccn4ncc-3c4n2)cc1F [compound 32],1.2
4,COc1cc(CNC(=O)Nc2ccc3cc2OCCOCCNc2ccn4ncc-3c4n2)ccc1F [compound 33],0.7
5,C[C@H](NC(=O)Nc1ccc2cc1OCCOCCNc1ccn3ncc-2c3n1)c1ccccc1 [compound 34],-0.1

# Target: T9, CAMK1DA (Homo sapiens, UniProt Q8IU85)
# T9 construct: purchased in-house DSF kinase panel (SGC-style construct names; the trailing letter is the construct ID)
# Assay: DSF Tm panel
# Assay type: binding
# Conditions: 10 μM compound
# T9 sequence (Q8IU85 whole entry): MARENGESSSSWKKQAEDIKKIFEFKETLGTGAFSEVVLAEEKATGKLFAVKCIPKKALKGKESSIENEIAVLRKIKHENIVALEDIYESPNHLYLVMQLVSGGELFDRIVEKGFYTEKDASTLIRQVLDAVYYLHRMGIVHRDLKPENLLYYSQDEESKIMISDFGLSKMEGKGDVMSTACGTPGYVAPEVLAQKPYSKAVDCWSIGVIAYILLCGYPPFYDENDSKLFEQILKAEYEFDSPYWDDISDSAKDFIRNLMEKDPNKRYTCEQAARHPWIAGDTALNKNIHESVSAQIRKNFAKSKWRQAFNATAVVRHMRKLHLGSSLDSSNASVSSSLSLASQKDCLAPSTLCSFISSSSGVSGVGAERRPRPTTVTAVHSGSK
row,Compound,ΔTm at 10 µM [°C]
1,COc1cccc(CNC(=O)Nc2ccc3cc2OCCOCCNc2ccn4ncc-3c4n2)c1 [compound 30],0.4
2,COc1ccc(CNC(=O)Nc2ccc3cc2OCCOCCNc2ccn4ncc-3c4n2)cc1 [compound 31],1.2
3,COc1ccc(CNC(=O)Nc2ccc3cc2OCCOCCNc2ccn4ncc-3c4n2)cc1F [compound 32],1.4
4,COc1cc(CNC(=O)Nc2ccc3cc2OCCOCCNc2ccn4ncc-3c4n2)ccc1F [compound 33],1.1
5,C[C@H](NC(=O)Nc1ccc2cc1OCCOCCNc1ccn3ncc-2c3n1)c1ccccc1 [compound 34],0.8
